Experiment [1] has as its target T1, potassium ion channel hERG (human Ether-á-go-go-Related Gene) (Homo sapiens, UniProt Q12809).
T1 construct: expressed in transfected cells; host or cells: Chinese hamster ovary K1 (CHO)
In words: Assay 5 - hERG assay (SyncroPatch 384PE patch clamp, CHO cells). It is filed as cell-based. The conditions noted are these: geometric mean; CHO cells over-expressing hERG; read-out: Assay 5 (hERG Hu CHO IF EPh CR-Syncro) GMean IC50. The gist of the method:
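Automated high-throughput patch clamp on CHO-K1 cells overexpressing hERG at room temperature, KF/KCl internal with escin, NMDG-containing external at pH 7.4. Six-point cumulative compound addition, 0.33% DMSO final; wells kept only with seal >30 MΩ, Z′ >0.4 and current >0.2 nA.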
In general terms: Block of hERG is tested as a sign of cardiac risk.

The target in experiment [2] is T2, PCSK9 (Homo sapiens, UniProt Q8NBP7, G670E/V474I). In words: Assay 3 - PCSK9 LDL-C uptake assay in HepG2 cells. Also noted: TEV cleavage site (C); His6 (C); host or cells: added to HepG2 cells (ATCC #HB-8065). The settings on record: 125 nM PCSK9, pHrodo Red-LDL, read-out: Assay 3 LDL uptake potency. It is filed as cell-based. An excerpt: Assay 3—PCSK9 LDL-C Uptake Assay
T2 sequence (Q8NBP7 with tags, fused parts or gaps V474I/G670E): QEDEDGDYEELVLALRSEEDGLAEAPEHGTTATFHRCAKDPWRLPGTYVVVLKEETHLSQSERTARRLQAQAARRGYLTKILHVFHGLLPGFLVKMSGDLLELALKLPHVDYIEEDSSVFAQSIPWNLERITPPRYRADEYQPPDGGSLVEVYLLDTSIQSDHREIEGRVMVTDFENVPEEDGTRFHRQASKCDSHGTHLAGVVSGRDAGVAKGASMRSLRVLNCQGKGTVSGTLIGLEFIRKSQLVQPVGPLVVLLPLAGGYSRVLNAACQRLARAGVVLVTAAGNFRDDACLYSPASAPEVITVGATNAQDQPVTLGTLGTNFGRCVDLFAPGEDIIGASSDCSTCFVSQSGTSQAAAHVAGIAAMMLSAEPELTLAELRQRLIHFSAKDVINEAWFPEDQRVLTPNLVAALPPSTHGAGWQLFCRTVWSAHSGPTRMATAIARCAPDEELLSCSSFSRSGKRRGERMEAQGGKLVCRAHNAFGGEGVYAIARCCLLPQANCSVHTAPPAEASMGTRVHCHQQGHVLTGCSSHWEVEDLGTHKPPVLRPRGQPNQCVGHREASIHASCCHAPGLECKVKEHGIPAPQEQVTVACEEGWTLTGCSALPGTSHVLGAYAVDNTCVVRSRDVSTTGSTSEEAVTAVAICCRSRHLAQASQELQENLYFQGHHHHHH
This assay measures for PCSK9 antagonist activity based on a test compound's capacity to restore LDL-C-uptake in HepG2 cells. The assay is based on exogenous PCSK9 and LDL-C complexed with a pH-sensitive dye. Outside the cells, at neutral pH, the pHrodo Red-LDL is dimly fluorescent but upon LDLR mediated endocytosis it fluoresces brightly. PCSK9 traffics the LDLR to intracellular degradation and reduces uptake of LDL-C. Inhibition of PCSK9 reduces LDLR degradation and the increased LDL-C uptake is quantified by fluorescence microscopy.
Preparation of Assay Reagents
Cell medium: MEM supplemented with 10% FBS, 1×NEAA and Sodium Pyruvate Assay medium: OptiMem supplemented with penicillin/streptomycin
Cells: HepG2 (ATCC #HB-8065)
Step by Step Protocol for Running the Assay:
• 1. Cryopreserved HepG2 cells were thawed in assay medium and centrifuged for 5 min at 250 g. Supernatant was discarded and the cell pellet resuspended in cell medium and counted with a Nucleocounter. Cells were again centrifuged 5 min at 250 g and the pellet was resuspended to 500000 cells/mL in assay medium. • 2. 20 μL of above cell mix was dispensed into black pclear TC treated 384 well plates with Multidrop Combi and left at room temperature for 20 minutes. • 3. Plates were incubated at 37° C., 5% CO2 for 24 h
• 1. Test compounds were prepared in concentration response in DMSO with a half-log dilution factor in DMSO in Echo 384 LDV plates starting at 10 mM. • 2. 30 nL of above test compounds were dispensed with Echo 655 to cells for a top concentration of 10 μM • 3. 10 μL PCSK9 in assay medium was dispensed to cells with Multidrop Combi for 125 nM final concentration in the wells. • 4. Plates were incubated at 37° C., 5% CO2 for 24 h
• 1. 10 μL pHrodo Red-LDL in assay medium was dispensed to cells with Multidrop Combi for 6 μg/mL • 2. Plates were incubated at 37° C., 5% CO2 and imaged with the Incucyte S3 after 4 h and 24 h
Image data was processed using Incucyte 2021, a software to identify cells and red fluorescent intensity. Screener was used to further process data. Data was normalized as % effect of the signal between median values of the on-plate controls of DMSO and 100 nM Evolocumab according to the formula % effect=−100*(x−DMSO)/(Evolocumab−DMSO) where x equals the measured signal. Concentration response data of the normalized values were fitted using a four-parameter logistic fit.

In experiment [3] the target is T2, PCSK9. In words: biochemical.
Experiment [4] concerns the target GSK3β (Glycogen synthase kinase-3 beta) (Homo sapiens, UniProt P49841). In words: Assay 6 - GSK3β assay (ThermoFisher Z-Lyte). The conditions noted are these: geometric mean; ATP Conc: 10 μM; read-out: Assay 6 (GSK3β FRET-Z-Lyte CR) GMean IC50 (μM) ATP Conc: 10. It is filed as biochemical. The gist of the method:
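Z-Lyte fluorescence kinase assay with 0.22-0.92 ng GSK3β and 2 μM Ser/Thr 09 peptide in 50 mM HEPES pH 7.5, 10 mM MgCl2, 1 mM EGTA, 0.01% BRIJ-35. Kinase reaction 60 min at room temperature, then 60 min development. 10-point 3-fold titration from 10 μM in 1% DMSO, fitted to a sigmoidal dose-response curve.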

Bounds are passed on as bounds.

Sequence of GSK3β (Glycogen synthase kinase-3 beta) (P49841 whole entry): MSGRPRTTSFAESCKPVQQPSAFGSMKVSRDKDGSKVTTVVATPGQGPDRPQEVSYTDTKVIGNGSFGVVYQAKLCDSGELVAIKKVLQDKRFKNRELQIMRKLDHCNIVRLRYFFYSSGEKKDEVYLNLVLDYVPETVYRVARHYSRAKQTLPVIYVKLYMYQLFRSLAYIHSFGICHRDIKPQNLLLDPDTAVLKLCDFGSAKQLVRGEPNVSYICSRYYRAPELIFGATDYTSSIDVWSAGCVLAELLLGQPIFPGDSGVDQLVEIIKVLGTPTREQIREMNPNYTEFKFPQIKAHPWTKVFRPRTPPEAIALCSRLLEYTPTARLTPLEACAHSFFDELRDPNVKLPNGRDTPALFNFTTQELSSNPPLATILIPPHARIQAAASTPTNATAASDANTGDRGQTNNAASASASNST
T1 sequence (Q12809 whole entry): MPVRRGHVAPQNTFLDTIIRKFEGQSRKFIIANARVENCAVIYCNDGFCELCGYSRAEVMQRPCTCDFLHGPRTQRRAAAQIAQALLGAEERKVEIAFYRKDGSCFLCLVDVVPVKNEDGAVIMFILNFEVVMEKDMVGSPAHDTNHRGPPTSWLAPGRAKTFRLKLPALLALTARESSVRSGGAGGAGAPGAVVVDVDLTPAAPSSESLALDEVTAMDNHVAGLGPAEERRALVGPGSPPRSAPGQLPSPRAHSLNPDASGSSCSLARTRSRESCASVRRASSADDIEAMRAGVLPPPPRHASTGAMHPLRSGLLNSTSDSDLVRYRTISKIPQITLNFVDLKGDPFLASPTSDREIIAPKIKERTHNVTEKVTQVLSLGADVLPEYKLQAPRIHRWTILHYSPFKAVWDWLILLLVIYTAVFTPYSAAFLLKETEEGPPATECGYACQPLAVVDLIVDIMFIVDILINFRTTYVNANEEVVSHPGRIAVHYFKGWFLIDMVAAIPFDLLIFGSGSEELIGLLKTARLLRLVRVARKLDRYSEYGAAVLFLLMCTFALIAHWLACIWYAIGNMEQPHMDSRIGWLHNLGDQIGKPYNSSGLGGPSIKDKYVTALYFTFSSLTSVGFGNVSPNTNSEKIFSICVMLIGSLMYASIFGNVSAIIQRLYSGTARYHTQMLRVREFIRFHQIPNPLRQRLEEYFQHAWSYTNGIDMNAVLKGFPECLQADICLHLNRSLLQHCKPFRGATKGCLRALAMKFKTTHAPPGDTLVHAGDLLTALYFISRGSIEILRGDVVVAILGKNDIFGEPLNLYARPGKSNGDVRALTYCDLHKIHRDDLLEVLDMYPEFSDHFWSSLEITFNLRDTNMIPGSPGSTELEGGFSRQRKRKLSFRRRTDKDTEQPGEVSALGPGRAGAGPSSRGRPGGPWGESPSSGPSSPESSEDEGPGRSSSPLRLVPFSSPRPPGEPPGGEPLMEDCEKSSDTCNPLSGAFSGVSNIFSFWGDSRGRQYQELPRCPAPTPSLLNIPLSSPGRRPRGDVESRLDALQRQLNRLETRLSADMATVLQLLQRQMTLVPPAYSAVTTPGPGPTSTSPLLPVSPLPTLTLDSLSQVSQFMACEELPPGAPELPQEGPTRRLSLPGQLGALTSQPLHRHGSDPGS

A word on the IC50: it is the concentration that gives 50% inhibition. Regarding `N#Cc1cccn(-c2ccc(N[C@H]3CC[C@H](Nc4cnc(C5CC5)cn4)C3)nc2)c1=O` [Example 104, 6′-(((1S,3S)-3-((5-Cyclopropylpyrazin-2-yl)amino)cyclopentyl)amino)-2-oxo-2H-[1,3′-bipyridine]-3-carbonitrile], the IC50 in experiment [1] was 24200 nM; at PCSK9 [3], 5.8 nM; in experiment [4], over 10 µM. The EC50 on PCSK9 [2] came to 500 nM.

Regarding `Cn1c(=O)n(-c2ccc(N[C@H]3CC[C@H](Nc4cnc(C5CC5)cn4)C3)nc2)c2ncccc21` [Example 105, 3-(6-(((1S,3S)-3-((5-Cyclopropylpyrazin-2-yl)amino)cyclopentyl)amino)pyridin-3-yl)-1-methyl-1,3-dihydro-2H-imidazo[4,5-b]pyridin-2-one], the IC50 in experiment [1] was 20400 nM; against PCSK9 [3] it was 6.4 nM; in experiment [4] it was over 10 µM. Further, the EC50 at PCSK9 [2] was determined as 800 nM.

As for `O=c1c(Cl)cccn1-c1ccc(N[C@H]2CC[C@H](Nc3cnc(C4CC4)cn3)C2)nc1` [Example 108, 3-Chloro-6′-(((1S,3S)-3-((5-Cyclopropylpyrazin-2-yl)amino)cyclopentyl)amino)-2H-[1,3′-bipyridin]-2-one], the IC50 in experiment [1] is 12700 nM; against PCSK9 [3], 3.4 nM; in experiment [4], over 10 µM. Further, the EC50 at PCSK9 [2] was 400 nM.

As to `Cc1cnc(N[C@H]2CC[C@H](Nc3ccc(-n4cccc(C(F)(F)F)c4=O)cn3)C2)cn1` [Example 147, 6′-(((1S,3S)-3-((5-Methylpyrazin-2-yl)amino)cyclopentyl)amino)-3-(trifluoromethyl)-2H-[1,3′-bipyridin]-2-one], the values for the IC50 (in experiment [1]; against PCSK9 [3]; in experiment [4]) were 16600 nM, 5.2 nM and over 10 µM, respectively. In addition, the EC50 on PCSK9 [2] is 100 nM.

For `Cc1cnc(N[C@H]2CC[C@H](Nc3ccc(-n4cccc(OC(F)(F)F)c4=O)cn3)C2)cn1` [Example 148, 6′-(((1S,3S)-3-((5-Methylpyrazin-2-yl)amino)cyclopentyl)amino)-3-(trifluoromethoxy)-2H-[1,3′-bipyridin]-2-one], the IC50 was over 40100 nM in experiment [1], 8 nM against PCSK9 [3] and over 10 µM in experiment [4]. Further, at PCSK9 [2], the EC50 is 200 nM.

As for `Cc1ncc(N[C@H]2CC[C@H](Nc3ccc(-n4cc(-c5nnn[nH]5)ccc4=O)cn3)C2)nc1C` [Example 176, 6′-(((1S,3S)-3-((5,6-Dimethylpyrazin-2-yl)amino)cyclopentyl)amino)-5-(1H-tetrazol-5-yl)-2H-[1,3′-bipyridin]-2-one], the results for the concentration for half-maximal inhibition (IC50) (in experiment [1]; against PCSK9 [3]; in experiment [4]) were over 40100 nM, 12 nM and over 10 µM, respectively. Besides, on PCSK9 [2], the EC50 came out at 100 nM.

On to `Cc1cnc(N[C@H]2CC[C@H](Nc3ccc(-n4cc(-c5nnn[nH]5)ccc4=O)cn3)C2)cn1` [Example 177, 6′-(((1S,3S)-3-((5-Methylpyrazin-2-yl)amino)cyclopentyl)amino)-5-(1H-tetrazol-5-yl)-2H-[1,3′-bipyridin]-2-one], for which the half-maximal inhibitory concentration (IC50) is over 40100 nM in experiment [1], 5.4 nM at PCSK9 [3] and over 10 µM in experiment [4]. Moreover, the EC50 at PCSK9 [2] worked out at 200 nM.

As to `O=c1ccc(-c2nnn[nH]2)cn1-c1ccc(N[C@H]2CC[C@H](Nc3cnc(OC(F)F)cn3)C2)nc1` [Example 178, 6′-(((1S,3S)-3-((5-(Difluoromethoxy)pyrazin-2-yl)amino)cyclopentyl)amino)-5-(1H-tetrazol-5-yl)-2H-[1,3′-bipyridin]-2-one], the half-maximal inhibitory concentration (IC50) in experiment [1] was over 40100 nM; against PCSK9 [3] it was 10 nM; in experiment [4] it was over 10 µM. At PCSK9 [2], the EC50 was 100 nM.

For `Cc1cnc(N[C@H]2CC[C@H](Nc3ccc(-n4cccc(-c5cn[nH]c5)c4=O)cn3)C2)cn1` [Example 204, 6′-(((1S,3S)-3-((5-Methylpyrazin-2-yl)amino)cyclopentyl)amino)-3-(1H-pyrazol-4-yl)-2H-[1,3′-bipyridin]-2-one], the half-inhibitory concentration (IC50) in experiment [1] was over 40100 nM; against PCSK9 [3] it was 3.5 nM; in experiment [4], over 10 µM. The EC50 at PCSK9 [2] was determined as 400 nM.

Regarding `Cc1cnc(N[C@H]2CC[C@H](Nc3ccc(-n4cc(-c5cn[nH]c5)ccc4=O)cn3)C2)cn1` [Example 207, 6′-(((1S,3S)-3-((5-Methylpyrazin-2-yl)amino)cyclopentyl)amino)-5-(1H-pyrazol-4-yl)-2H-[1,3′-bipyridin]-2-one], the IC50 is over 40100 nM in experiment [1], 8.6 nM at PCSK9 [3] and over 10 µM in experiment [4]. Moreover, the EC50 at PCSK9 [2] worked out at 400 nM.

Turning to `Cc1cnc(N[C@H]2CC[C@H](Nc3ccc(-n4cc(-c5c[nH]nn5)ccc4=O)cn3)C2)cn1` [Example 209, 6′-(((1S,3S)-3-((5-Methylpyrazin-2-yl)amino)cyclopentyl)amino)-5-(1H-1,2,3-triazol-4-yl)-2H-[1,3′-bipyridin]-2-one], the results for the IC50 (in experiment [1]; against PCSK9 [3]; in experiment [4]) were over 40100 nM, 6.3 nM and over 10 µM, respectively. Besides, the EC50 at PCSK9 [2] worked out at 200 nM.

For `Cc1cnc(N[C@H]2CC[C@H](Nc3ccc(-n4c(=O)n(C)c5ccc(C#N)cc54)cn3)C2)cn1` [Example 215, 1-Methyl-3-(6-(((1S,3S)-3-((5-methylpyrazin-2-yl)amino)cyclopentyl)amino)pyridin-3-yl)-2-oxo-2,3-dihydro-1H-benzo[d]imidazole-5-carbonitrile], the results for the IC50 (in experiment [1]; at PCSK9 [3]; in experiment [4]) were 16000 nM, 1 nM and over 10 µM, respectively. Moreover, on PCSK9 [2], the EC50 was 100 nM.

With `Cc1cnc(N[C@H]2CC[C@H](Nc3ccc(-n4c(=O)n(C)c5cc(C#N)ccc54)cn3)C2)cn1` [Example 216, 3-Methyl-1-(6-(((1S,3S)-3-((5-methylpyrazin-2-yl)amino)cyclopentyl)amino)pyridin-3-yl)-2-oxo-2,3-dihydro-1H-benzo[d]imidazole-5-carbonitrile], the half-maximal inhibitory concentration (IC50) in experiment [1] was 7300 nM; against PCSK9 [3] it was 2.8 nM; in experiment [4] it was over 10 µM. Moreover, the EC50 at PCSK9 [2] was 300 nM.

With `Cc1cnc(N[C@H]2CC[C@H](Nc3ccc(-n4c(=O)n(C)c5cc(C#N)cnc54)cn3)C2)cn1` [Example 218, 1-Methyl-3-(6-(((1S,3S)-3-((5-methylpyrazin-2-yl)amino)cyclopentyl)amino)pyridin-3-yl)-2-oxo-2,3-dihydro-1H-imidazo[4,5-b]pyridine-6-carbonitrile], the IC50 in experiment [1] is 22500 nM; at PCSK9 [3] it was 5.4 nM; in experiment [4], over 10 µM. The EC50 at PCSK9 [2] was 300 nM.

With `Cc1cnc(N[C@H]2CC[C@H](Nc3ccc(-n4nccc(Cl)c4=O)cn3)C2)cn1` [Example 232, 4-Chloro-2-(6-(((1S,3S)-3-((5-methylpyrazin-2-yl)amino)cyclopentyl)amino)pyridin-3-yl)pyridazin-3 (2H)-one], the figures for the IC50 (in experiment [1]; at PCSK9 [3]; in experiment [4]) were 39900 nM, 3.7 nM and over 10 µM, respectively. Also, at PCSK9 [2], the EC50 turned out to be 500 nM.

On to `Cc1cnc(N[C@H]2CC[C@H](Nc3ccc(-n4cc(CS(C)(=O)=O)ccc4=O)cn3)C2)cn1` [Example 259, 6′-(((1S,3S)-3-((5-Methylpyrazin-2-yl)amino)cyclopentyl)amino)-5-((methylsulfonyl)methyl)-2H-[1,3′-bipyridin]-2-one], for which the IC50 in experiment [1] was over 40100 nM; against PCSK9 [3], 43 nM; in experiment [4], over 10 µM. Besides, at PCSK9 [2], the EC50 is over 600 nM.

The values are drawn from patent publication US20240217951A1, “PCSK9 INHIBITORS AND METHODS OF USE THEREOF” (AstraZeneca AB, priority 2022, published 2024).
